In PMC4441267:

Assay: RuAAC macrocyclisation of azide/terminal alkyne linear peptidomimetics to 1,5-triazole ([Cp*RuCl]4 0.1 eq, Ar-degassed), then Boc removal (TMSCl/MeOH GP4 or HCl/dioxane GP5)
Conditions: toluene (reflux), 1.25 mM, 111.0 °C, 18.0 h, 2 steps

COC(=O)[C@@H]1CNC(=O)[C@H](Cc2ccccc2)n2nncc2CCC(=O)NCC[C@H](N)C(=O)N1 [Boc-Dab(4-pentynoyl)-Dap(N3-Phe)-OMe]
ring closure, yield over several steps (from C#CCCC(=O)NCC[C@H](NC(=O)OC(C)(C)C)C(=O)N[C@@H](CNC(=O)[C@H](Cc1ccccc1)N=[N+]=[N-])C(=O)OC, 16-membered ring): 60%

COC(=O)[C@@H]1CCCCn2nncc2CCC(=O)NCC[C@H](N)C(=O)N1 [Boc-Dab(4-pentynoyl)-Lys(N3)-OMe]
ring closure, yield over several steps (from C#CCCC(=O)NCC[C@H](NC(=O)OC(C)(C)C)C(=O)N[C@@H](CCCCN=[N+]=[N-])C(=O)OC, 16-membered ring): 99%

COC(=O)[C@@H]1CCCCNC(=O)[C@H](Cc2ccccc2)n2nncc2CCC(=O)NCC[C@H](N)C(=O)N1 [Boc-Dab(4-pentynoyl)-Lys(N3-Phe)-OMe]
ring closure, yield over several steps (from C#CCCC(=O)NCC[C@H](NC(=O)OC(C)(C)C)C(=O)N[C@@H](CCCCNC(=O)[C@H](Cc1ccccc1)N=[N+]=[N-])C(=O)OC, 19-membered ring): 90%

COC(=O)[C@@H]1CCCn2nncc2CCC(=O)NCC[C@H](N)C(=O)N1 [Boc-Dab(4-pentynoyl)-Orn(N3)-OMe]
ring closure, yield over several steps (from C#CCCC(=O)NCC[C@H](NC(=O)OC(C)(C)C)C(=O)N[C@@H](CCCN=[N+]=[N-])C(=O)OC, 15-membered ring): 82%

COC(=O)[C@@H]1Cc2ccc(cc2)-n2nncc2CCC(=O)NCC[C@H](N)C(=O)N1 [Boc-Dab(4-pentynoyl)-Phe(4-N3)-OMe]
ring closure, yield over several steps (from C#CCCC(=O)NCC[C@H](NC(=O)OC(C)(C)C)C(=O)N[C@@H](Cc1ccc(N=[N+]=[N-])cc1)C(=O)OC, 17-membered ring): 83%

COC(=O)[C@@H]1CNC(=O)[C@H](Cc2ccccc2)n2nncc2CCCC(=O)NCC[C@H](N)C(=O)N1 [Boc-Dab(5-hexynoyl)-Dap(N3-Phe)-OMe]
ring closure, yield over several steps (from C#CCCCC(=O)NCC[C@H](NC(=O)OC(C)(C)C)C(=O)N[C@@H](CNC(=O)[C@H](Cc1ccccc1)N=[N+]=[N-])C(=O)OC, 17-membered ring): 99%

COC(=O)[C@@H]1CCCCn2nncc2CCCC(=O)NCC[C@H](N)C(=O)N1 [Boc-Dab(5-hexynoyl)-Lys(N3)-OMe]
ring closure, yield over several steps (from C#CCCCC(=O)NCC[C@H](NC(=O)OC(C)(C)C)C(=O)N[C@@H](CCCCN=[N+]=[N-])C(=O)OC, 17-membered ring): 99%

COC(=O)[C@@H]1CCCCNC(=O)[C@H](Cc2ccccc2)n2nncc2CCCC(=O)NCC[C@H](N)C(=O)N1 [Boc-Dab(5-hexynoyl)-Lys(N3-Phe)-OMe]
ring closure, yield over several steps (from C#CCCCC(=O)NCC[C@H](NC(=O)OC(C)(C)C)C(=O)N[C@@H](CCCCNC(=O)[C@H](Cc1ccccc1)N=[N+]=[N-])C(=O)OC, 20-membered ring): 87%

COC(=O)[C@@H]1CCCn2nncc2CCCC(=O)NCC[C@H](N)C(=O)N1 [Boc-Dab(5-hexynoyl)-Orn(N3)-OMe]
ring closure, yield over several steps (from C#CCCCC(=O)NCC[C@H](NC(=O)OC(C)(C)C)C(=O)N[C@@H](CCCN=[N+]=[N-])C(=O)OC, 16-membered ring): 99%

COC(=O)[C@@H]1Cc2ccc(cc2)-n2nncc2CCCC(=O)NCC[C@H](N)C(=O)N1 [Boc-Dab(5-hexynoyl)-Phe(4-N3)-OMe]
ring closure, yield over several steps (from C#CCCCC(=O)NCC[C@H](NC(=O)OC(C)(C)C)C(=O)N[C@@H](Cc1ccc(N=[N+]=[N-])cc1)C(=O)OC, 18-membered ring): 97%

COC(=O)[C@@H]1CNC(=O)[C@H](Cc2ccccc2)n2nncc2CNC(=O)NCC[C@H](N)C(=O)N1 [Boc-Dab(CONH-propargyl)-Dap(N3-Phe)-OMe]
ring closure, yield over several steps (from C#CCNC(=O)NCC[C@H](NC(=O)OC(C)(C)C)C(=O)N[C@@H](CNC(=O)[C@H](Cc1ccccc1)N=[N+]=[N-])C(=O)OC, 16-membered ring): 52%

COC(=O)[C@@H]1CCCCn2nncc2CNC(=O)NCC[C@H](N)C(=O)N1 [Boc-Dab(CONH-propargyl)-Lys(N3)-OMe]
ring closure, yield over several steps (from C#CCNC(=O)NCC[C@H](NC(=O)OC(C)(C)C)C(=O)N[C@@H](CCCCN=[N+]=[N-])C(=O)OC, 16-membered ring): 99%

COC(=O)[C@@H]1CCCCNC(=O)[C@H](Cc2ccccc2)n2nncc2CNC(=O)NCC[C@H](N)C(=O)N1 [Boc-Dab(CONH-propargyl)-Lys(N3-Phe)-OMe]
ring closure, yield over several steps (from C#CCNC(=O)NCC[C@H](NC(=O)OC(C)(C)C)C(=O)N[C@@H](CCCCNC(=O)[C@H](Cc1ccccc1)N=[N+]=[N-])C(=O)OC, 19-membered ring): 78%

COC(=O)[C@@H]1CCCn2nncc2CNC(=O)NCC[C@H](N)C(=O)N1 [Boc-Dab(CONH-propargyl)-Orn(N3)-OMe]
ring closure, yield over several steps (from C#CCNC(=O)NCC[C@H](NC(=O)OC(C)(C)C)C(=O)N[C@@H](CCCN=[N+]=[N-])C(=O)OC, 15-membered ring): 99%

COC(=O)[C@@H]1Cc2ccc(cc2)-n2nncc2CNC(=O)NCC[C@H](N)C(=O)N1 [Boc-Dab(CONH-propargyl)-Phe(4-N3)-OMe]
ring closure, yield over several steps (from C#CCNC(=O)NCC[C@H](NC(=O)OC(C)(C)C)C(=O)N[C@@H](Cc1ccc(N=[N+]=[N-])cc1)C(=O)OC, 17-membered ring): 40%

COC(=O)[C@@H]1CNC(=O)[C@H](Cc2ccccc2)n2nncc2CCC(=O)NC[C@H](N)C(=O)N1 [Boc-Dap(4-pentynoyl)-Dap(N3-Phe)-OMe]
ring closure, yield over several steps (from C#CCCC(=O)NC[C@H](NC(=O)OC(C)(C)C)C(=O)N[C@@H](CNC(=O)[C@H](Cc1ccccc1)N=[N+]=[N-])C(=O)OC, 15-membered ring): 89%

COC(=O)[C@@H]1CCCCn2nncc2CCC(=O)NC[C@H](N)C(=O)N1 [Boc-Dap(4-pentynoyl)-Lys(N3)-OMe]
ring closure, yield over several steps (from C#CCCC(=O)NC[C@H](NC(=O)OC(C)(C)C)C(=O)N[C@@H](CCCCN=[N+]=[N-])C(=O)OC, 15-membered ring): 88%

COC(=O)[C@@H]1CCCCNC(=O)[C@H](Cc2ccccc2)n2nncc2CCC(=O)NC[C@H](N)C(=O)N1 [Boc-Dap(4-pentynoyl)-Lys(N3-Phe)-OMe]
ring closure, yield over several steps (from C#CCCC(=O)NC[C@H](NC(=O)OC(C)(C)C)C(=O)N[C@@H](CCCCNC(=O)[C@H](Cc1ccccc1)N=[N+]=[N-])C(=O)OC, 18-membered ring): 99%

COC(=O)[C@@H]1CCCn2nncc2CCC(=O)NC[C@H](N)C(=O)N1 [Boc-Dap(4-pentynoyl)-Orn(N3)-OMe]
ring closure, yield over several steps (from C#CCCC(=O)NC[C@H](NC(=O)OC(C)(C)C)C(=O)N[C@@H](CCCN=[N+]=[N-])C(=O)OC, 14-membered ring): 99%

COC(=O)[C@@H]1Cc2ccc(cc2)-n2nncc2CCC(=O)NC[C@H](N)C(=O)N1 [Boc-Dap(4-pentynoyl)-Phe(4-N3)-OMe]
ring closure, yield over several steps (from C#CCCC(=O)NC[C@H](NC(=O)OC(C)(C)C)C(=O)N[C@@H](Cc1ccc(N=[N+]=[N-])cc1)C(=O)OC, 16-membered ring): 33%

COC(=O)[C@@H]1CNC(=O)[C@H](Cc2ccccc2)n2nncc2CCCC(=O)NC[C@H](N)C(=O)N1 [Boc-Dap(5-hexynoyl)-Dap(N3-Phe)-OMe]
ring closure, yield over several steps (from C#CCCCC(=O)NC[C@H](NC(=O)OC(C)(C)C)C(=O)N[C@@H](CNC(=O)[C@H](Cc1ccccc1)N=[N+]=[N-])C(=O)OC, 16-membered ring): 99%

COC(=O)[C@@H]1CCCCn2nncc2CCCC(=O)NC[C@H](N)C(=O)N1 [Boc-Dap(5-hexynoyl)-Lys(N3)-OMe]
ring closure, yield over several steps (from C#CCCCC(=O)NC[C@H](NC(=O)OC(C)(C)C)C(=O)N[C@@H](CCCCN=[N+]=[N-])C(=O)OC, 16-membered ring): 99%

COC(=O)[C@@H]1CCCCNC(=O)[C@H](Cc2ccccc2)n2nncc2CCCC(=O)NC[C@H](N)C(=O)N1 [Boc-Dap(5-hexynoyl)-Lys(N3-Phe)-OMe]
ring closure, yield over several steps (from C#CCCCC(=O)NC[C@H](NC(=O)OC(C)(C)C)C(=O)N[C@@H](CCCCNC(=O)[C@H](Cc1ccccc1)N=[N+]=[N-])C(=O)OC, 19-membered ring): 99%

COC(=O)[C@@H]1CCCn2nncc2CCCC(=O)NC[C@H](N)C(=O)N1 [Boc-Dap(5-hexynoyl)-Orn(N3)-OMe]
ring closure, yield over several steps (from C#CCCCC(=O)NC[C@H](NC(=O)OC(C)(C)C)C(=O)N[C@@H](CCCN=[N+]=[N-])C(=O)OC, 15-membered ring): 99%

COC(=O)[C@@H]1CNC(=O)[C@H](Cc2ccccc2)n2nncc2CNC(=O)NC[C@H](N)C(=O)N1 [Boc-Dap(CONH-propargyl)-Dap(N3-Phe)-OMe]
ring closure, yield over several steps (from C#CCNC(=O)NC[C@H](NC(=O)OC(C)(C)C)C(=O)N[C@@H](CNC(=O)[C@H](Cc1ccccc1)N=[N+]=[N-])C(=O)OC, 15-membered ring): 40%

COC(=O)[C@@H]1CCCCn2nncc2CNC(=O)NC[C@H](N)C(=O)N1 [Boc-Dap(CONH-propargyl)-Lys(N3)-OMe]
ring closure, yield over several steps (from C#CCNC(=O)NC[C@H](NC(=O)OC(C)(C)C)C(=O)N[C@@H](CCCCN=[N+]=[N-])C(=O)OC, 15-membered ring): 73%

COC(=O)[C@@H]1CCCCNC(=O)[C@H](Cc2ccccc2)n2nncc2CNC(=O)NC[C@H](N)C(=O)N1 [Boc-Dap(CONH-propargyl)-Lys(N3-Phe)-OMe]
ring closure, yield over several steps (from C#CCNC(=O)NC[C@H](NC(=O)OC(C)(C)C)C(=O)N[C@@H](CCCCNC(=O)[C@H](Cc1ccccc1)N=[N+]=[N-])C(=O)OC, 18-membered ring): 38%
